Positions of bridges follow the written chain, without caps; N, C: chain ends. Residues, ends and D or L forms follow the SMILES beside them. *: point of attachment. Biotin = O=C1N[C@H]2[C@H](CS[C@H]2CCCCC(=O)*)N1
What was measured:
bovine liver CAT = target: T1, bovine liver CAT (Bos taurus, UniProt P00432); assay: SPR kinetic analysis, bovine liver CAT immobilized on CM5 chip; type: binding
T1 construct: bovine liver CAT (C-40; Sigma); purchased Sigma C-40; host or cells: bovine liver (tissue-derived enzyme)
T1 sequence (P00432 2-527 limits assumed): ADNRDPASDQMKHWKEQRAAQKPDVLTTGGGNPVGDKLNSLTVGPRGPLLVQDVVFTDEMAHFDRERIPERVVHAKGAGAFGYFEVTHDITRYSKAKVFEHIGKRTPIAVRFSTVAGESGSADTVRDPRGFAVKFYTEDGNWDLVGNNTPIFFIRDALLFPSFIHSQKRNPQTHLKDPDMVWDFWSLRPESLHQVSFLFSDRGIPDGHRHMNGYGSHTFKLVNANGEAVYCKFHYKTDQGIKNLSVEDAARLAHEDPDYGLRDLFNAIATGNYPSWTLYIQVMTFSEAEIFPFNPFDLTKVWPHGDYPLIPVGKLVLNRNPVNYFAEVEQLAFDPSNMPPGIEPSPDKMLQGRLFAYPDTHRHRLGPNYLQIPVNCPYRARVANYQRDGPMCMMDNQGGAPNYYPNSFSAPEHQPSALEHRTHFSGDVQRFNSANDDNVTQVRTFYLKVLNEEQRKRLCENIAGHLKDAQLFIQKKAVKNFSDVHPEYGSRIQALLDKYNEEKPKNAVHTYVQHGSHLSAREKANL
Experimental: SPR experiments were performed at 20 °C on Biacore T100 instrument operated using Biacore T100 control software (version 2.0.2, GE Healthcare Lifesciences) using Series S CM5 or NTA sensor chips as described in[21]. Kinetic analyses were performed at the flow of 100 μL min^−1 with pAtPNP-A (at 3.78 μM and consecutive twofold dilutions; 11 injections included) employed as a ligand and bovine liver CAT (C-40; Sigma) used as an analyte and immobilized on the active surface of the Series S CM5 sensor chip with amine coupling kit, while the surface regeneration was done with solution of glycine, pH 2.0, and the final sensorgram was generated with Scrubber (BioLogic Software Pty Ltd).

bovine CAT = assay: Isothermal titration calorimetry (ITC); type: binding; conditions: 100 μM pAtPNP-A as titrant, PBS pH 7.4, 25 °C, 30 injections
Experimental: ITC experiments were undertaken using MicroCal iTC200 (Malvern Panalytical) calorimeter. The titrations were conducted at 25 °C in PBS buffer at pH 7.4, with 100 μM pAtPNP-A used as a titrant. Total number of injections was set at 30, reference power was 11 μcal s^−1, initial delay was 60 s, and stirring speed was 750 rpm.

CAT2 = assay: Protein-peptide cross-linking, affinity-based isolation and LC–MS/MS; type: binding, Arabidopsis thaliana; conditions: biotinylated pAtPNP-A, cross-linking in A. thaliana mesophyll cell protoplasts; data set published in ref 44
Experimental: Cross-linking experiments followed by affinity-based isolation and LC-MS/MS identification of […] interactors were performed on A. thaliana (Col-0) wild type (WT) mesophyll cell protoplasts (MCPs) as described in[44].

[1] = test system: mitogen-activated protein kinase (MAPK) pathway; assay: MAPK pathway activation; conditions: data not shown
[2] = test system: Calcium-binding EF-hand family protein; assay: Yeast two-hybrid (Y2H) screen; set-up: species or system A. thaliana; conditions: bait AtPNP-A amino acids 26–130, prey At2g41410.1
Experimental: (§1) The Y2H screen using AtPNP-A as bait was carried out by Dualsystems Biotech AG (Zurich, Switzerland). The bait construct for the screening was made by subcloning the cDNA fragment encoding exported portion of AtPNP-A (amino acids 26 to 130) (Fig. 1a) into the pLexA-DIR vector (Dualsystems Biotech AG). The bait construct was transformed into the strain NMY32 (MATa his3Δ200 trp1-901 leu2-3,112 (lexAop)8-ADE2 LYS2::(lexAop)4-HIS3 URA3::(lexAop)8-lacZ GAL4) using standard procedures. Correct expression of the bait was verified by western blotting of cell extracts using a mouse monoclonal antibody directed against the LexA domain (Dualsystems Biotech AG). The absence of self-activation was verified by co-transformation of the bait together with a control prey and selection on minimal medium lacking tryptophan, leucine, and histidine (selective medium). For the Y2H screen, the bait was co-transformed together with a normalized A. thaliana universal P02403 cDNA library (Dualsystems Biotech AG) into NMY32. 3.1 × 10^6 transformants were screened, yielding 96 transformants that grew on selective medium. […] Library plasmids were isolated from positive clones. The identity of positive interactants was determined by sequencing. DNA sequences translated in all three reading frames and searching against the SwissProt database using the BLASTX algorithm (https://blast.ncbi.nlm.nih.gov).

[3] = test system: NAD(P)-binding Rossmann-fold superfamily protein; assay: Yeast two-hybrid (Y2H) screen; set-up: species or system A. thaliana; conditions: bait AtPNP-A amino acids 26–130, prey At1g07440.1
Experimental: as §1

[4] = test system: SPL8, squamosal promoter binding protein-like 8; assay: Yeast two-hybrid (Y2H) screen; set-up: species or system A. thaliana; conditions: bait AtPNP-A amino acids 26–130, prey At1g02065.1
Experimental: as §1

[5] = test system: receptor perceiving AtPNP-A; conditions: cited from earlier work
From the text: Similarly, identification of novel receptors targeted by an increasing number of peptidic plant hormones discovered in the last few decades[8],[9] is anticipated. One of those, the plant natriuretic peptides (PNPs), are a group of systemically mobile signals[10] that have a role in the maintenance of salt and water balance[11],[12]. An A. thaliana PNP, termed AtPNP-A (At2g18660; Q9ZV52), has been implicated in several physiological processes ranging from the regulation of stomatal aperture, osmoticum-dependent volume changes[13],[14] and modulation of developmental stage- and tissue-specif ...

Compound	Chi2, average squared residual (bovine liver CAT; SPR kinetic fit, 20 °C)	U-value, uniqueness value for kinetic rate constants (bovine liver CAT; SPR kinetic fit, 20 °C)	Specificity of binding to bovine CAT (bovine liver CAT; SPR, both ligand-analyte configurations, amine coupling)	ITC: conformational changes on binding (bovine CAT)	Identification of CAT2 by LC–MS/MS (CAT2)	Activation of MAPK pathway [1]	Strength of binding [2]	Strength of binding [3]	Strength of binding [4]	Generation of cGMP by receptor upon AtPNP-A binding [5]
CC(C)C[C@@H]1NC(=O)[C@H](CC(N)=O)NC(=O)[C@H](CC(N)=O)NC(=O)[C@H](CCCCN)NC(=O)[C@H](C(C)C)NC(=O)CNC(=O)[C@H](C(C)C)NC(=O)[C@H](C(C)C)NC(=O)[C@H](CC(C)C)NC(=O)[C@H]([C@@H](C)O)NC(=O)[C@H](CCC(=O)O)NC(=O)[C@H](CCCNC(=N)N)NC(=O)[C@H](CCC(N)=O)NC(=O)[C@H]([C@@H](C)O)NC(=O)CNC(=O)[C@H](Cc2ccc(O)cc2)NC(=O)[C@@H](NC(=O)[C@H](C)NC(=O)[C@H](CO)NC(=O)[C@H](CCCNC(=N)N)NC(=O)[C@@H](NC(=O)[C@H](Cc2ccc(O)cc2)NC(=O)[C@@H]2CCCN2)[C@@H](C)O)CSSC[C@@H](C(=O)NCC(=O)N[C@@H](CCCNC(=N)N)C(=O)N[C@@H](CCCNC(=N)N)C(=O)N[C@@H](Cc2ccc(O)cc2)C(=O)N[C@@H](CCCNC(=N)N)C(=O)N[C@H](C(=O)N[C@@H](CCCNC(=N)N)C(=O)N[C@@H](CCCCNC(=O)CCCC[C@@H]2SC[C@@H]3NC(=O)N[C@@H]32)C(=O)O)C(C)C)NC(=O)[C@H](C)NC(=O)[C@H](CCCNC(=N)N)NC(=O)CNC(=O)[C@H](CC(N)=O)NC(=O)[C@H](CCC(N)=O)NC(=O)[C@H](Cc2c[nH]c3ccccc23)NC1=O [pAtPNP-A] (H-PYTRSACYGTQRETLVVGVKNNLWQNGRACGRRYRVRK(Biotin)-OH; disulfide 7-30; N-terminus and C-terminus assumed)	10.4 RU2	2	points to a specific interaction	significant conformational changes occurring as a result of pAtPNP-A binding to bovine CAT	CAT2 was identified by LC–MS/MS only in samples containing pAtPNP-A	does not activate mitogen-activated protein kinase (MAPK) pathway	–	–	–	–
AtPNP-A: An A. thaliana PNP, termed AtPNP-A (At2g18660; Q9ZV52)	–	–	–	–	–	–	Weak	Moderate	Weak	catalyzes generation of cGMP upon binding of AtPNP-A

— article PMC7665192, “A natriuretic peptide from Arabidopsis thaliana (AtPNP-A) can modulate catalase 2 activity” (Scientific Reports, 2020)
